Results on 13 molecules are retold here after patent US11866720B2, “Transgenic or non-transgenic plants with mutated protoporphyrinogen oxidase having increased tolerance to herbicides” (priority 2013, dated 2024).

Substitutions are numbered along the chain they refer to. Several values for one entry are separate records, joined by “and”; a condition that tells them apart may be missing. Equal entries are not always repeated. Bounds are passed on as bounds.

What all share (test): biochemical
Holding throughout (details): IC50 (M)

Assay [1] has as its target T1, recombinant wildtype and mutated PPO (Amaranthus PPO2: PPX2L_WC SEQ ID NO 2, PPX2L_AC SEQ ID NO 4, dG210 SEQ ID NO 6 & 8) (Amaranthus tuberculatus, UniProt Q0NZW9, D133A/F420M/R128N).
T1 sequence (Q0NZW9 1-534 R128N/D133A/F420M): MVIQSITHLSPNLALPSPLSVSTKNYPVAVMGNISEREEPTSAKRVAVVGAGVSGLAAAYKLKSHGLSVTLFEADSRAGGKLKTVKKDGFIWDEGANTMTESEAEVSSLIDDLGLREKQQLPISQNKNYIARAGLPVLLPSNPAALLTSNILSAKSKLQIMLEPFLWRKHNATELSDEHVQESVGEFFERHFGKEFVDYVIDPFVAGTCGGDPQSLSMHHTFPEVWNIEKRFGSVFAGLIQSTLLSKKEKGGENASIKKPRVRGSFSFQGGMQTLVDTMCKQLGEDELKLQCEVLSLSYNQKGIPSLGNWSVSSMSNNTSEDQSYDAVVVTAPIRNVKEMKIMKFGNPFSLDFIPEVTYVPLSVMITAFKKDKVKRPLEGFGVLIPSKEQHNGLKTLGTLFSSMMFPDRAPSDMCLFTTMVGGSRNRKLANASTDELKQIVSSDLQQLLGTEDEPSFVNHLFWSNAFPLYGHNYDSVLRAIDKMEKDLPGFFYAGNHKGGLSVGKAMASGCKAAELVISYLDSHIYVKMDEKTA

Assay [2] has as its target recombinant wildtype and mutated PPO (Amaranthus PPO2: PPX2L_WC SEQ ID NO 2, PPX2L_AC SEQ ID NO 4, dG210 SEQ ID NO 6 & 8) (Amaranthus tuberculatus, UniProt Q0NZW9, D133A/F420V/R128C).
Assay [3] concerns the target recombinant wildtype and mutated PPO (Amaranthus PPO2: PPX2L_WC SEQ ID NO 2, PPX2L_AC SEQ ID NO 4, dG210 SEQ ID NO 6 & 8) (Amaranthus tuberculatus, UniProt Q0NZW9, D133A/F420M/R128H).
Assay [4] concerns the target T2, recombinant wildtype and mutated PPO (Amaranthus PPO2: PPX2L_WC SEQ ID NO 2, PPX2L_AC SEQ ID NO 4, dG210 SEQ ID NO 6 & 8) (Amaranthus tuberculatus, UniProt Q0NZW9, D133A/F420V/R128I).
T2 sequence (Q0NZW9 1-534 R128I/D133A/F420V): T1 sequence (Q0NZW9 1-534 R128N/D133A/F420M) with N128I, M420V

Assay [5] has as its target T3, recombinant wildtype and mutated PPO (Amaranthus PPO2: PPX2L_WC SEQ ID NO 2, PPX2L_AC SEQ ID NO 4, dG210 SEQ ID NO 6 & 8) (Amaranthus tuberculatus, UniProt Q0NZW9, D133A/F420I/R128Y).
T3 sequence (Q0NZW9 1-534 R128Y/D133A/F420I): T1 sequence (Q0NZW9 1-534 R128N/D133A/F420M) with N128Y, M420I

Assay [6] addresses recombinant wildtype and mutated PPO (Amaranthus PPO2: PPX2L_WC SEQ ID NO 2, PPX2L_AC SEQ ID NO 4, dG210 SEQ ID NO 6 & 8) (Amaranthus tuberculatus, UniProt Q0NZW9, D133A/F420M/R128M).
The target in assay [7] is recombinant wildtype and mutated PPO (Amaranthus PPO2: PPX2L_WC SEQ ID NO 2, PPX2L_AC SEQ ID NO 4, dG210 SEQ ID NO 6 & 8) (Amaranthus tuberculatus, UniProt Q0NZW9, D133A/F420M/R128C).
recombinant wildtype and mutated PPO (Amaranthus PPO2: PPX2L_WC SEQ ID NO 2, PPX2L_AC SEQ ID NO 4, dG210 SEQ ID NO 6 & 8) (Amaranthus tuberculatus, UniProt Q0NZW9, D133A/F420M/R128C), sequence (Q0NZW9 1-534 R128C/D133A/F420M): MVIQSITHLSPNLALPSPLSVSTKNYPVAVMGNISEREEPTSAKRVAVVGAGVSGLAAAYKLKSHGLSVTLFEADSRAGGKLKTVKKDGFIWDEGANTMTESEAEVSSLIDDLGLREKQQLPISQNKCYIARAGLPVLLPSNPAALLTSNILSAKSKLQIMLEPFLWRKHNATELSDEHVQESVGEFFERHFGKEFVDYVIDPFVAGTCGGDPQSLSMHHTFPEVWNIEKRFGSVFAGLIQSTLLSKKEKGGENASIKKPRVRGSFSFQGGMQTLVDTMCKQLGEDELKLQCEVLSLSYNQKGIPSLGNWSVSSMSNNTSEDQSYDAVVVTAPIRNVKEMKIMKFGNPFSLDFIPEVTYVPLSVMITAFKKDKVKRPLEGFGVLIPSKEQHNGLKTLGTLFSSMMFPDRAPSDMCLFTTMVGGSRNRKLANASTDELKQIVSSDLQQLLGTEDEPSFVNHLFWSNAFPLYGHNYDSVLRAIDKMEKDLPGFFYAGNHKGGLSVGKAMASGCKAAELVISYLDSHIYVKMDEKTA

recombinant wildtype and mutated PPO (Amaranthus PPO2: PPX2L_WC SEQ ID NO 2, PPX2L_AC SEQ ID NO 4, dG210 SEQ ID NO 6 & 8) (Amaranthus tuberculatus, UniProt Q0NZW9, D133A/F420M/R128M), sequence (Q0NZW9 1-534 R128M/D133A/F420M): as the sequence (Q0NZW9 1-534 R128C/D133A/F420M) above, with C128M counted along it
recombinant wildtype and mutated PPO (Amaranthus PPO2: PPX2L_WC SEQ ID NO 2, PPX2L_AC SEQ ID NO 4, dG210 SEQ ID NO 6 & 8) (Amaranthus tuberculatus, UniProt Q0NZW9, D133A/F420M/R128H), sequence (Q0NZW9 1-534 R128H/D133A/F420M): as the sequence (Q0NZW9 1-534 R128C/D133A/F420M) above, with C128H counted along it
recombinant wildtype and mutated PPO (Amaranthus PPO2: PPX2L_WC SEQ ID NO 2, PPX2L_AC SEQ ID NO 4, dG210 SEQ ID NO 6 & 8) (Amaranthus tuberculatus, UniProt Q0NZW9, D133A/F420V/R128C), sequence (Q0NZW9 1-534 R128C/D133A/F420V): as the sequence (Q0NZW9 1-534 R128C/D133A/F420M) above, with M420V counted along it

For the molecule `C#CCN1C(=O)C(F)(F)Oc2cc(F)c(-n3c(=O)n(C)c(=S)n(C)c3=O)cc21`, the IC50 in assay [1] is 7.12e-08 M and 4.97e-08 M; in assay [2], 1.66e-07 M and 2.66e-07 M; in assay [3], 2.64e-08 M and 2.13e-08 M; in assay [4] it was 2.14e-07 M and 3.15e-07 M; in assay [5] it was 4.82e-07 M and 2.63e-06 M; in assay [6], 7.69e-08 M and 7.07e-08 M and 4.84e-08 M. Also, the IC50 in assay [7] was 2.53e-08 M and 2.33e-08 M.

Consider `C#CCN1C(=O)C(F)(F)Oc2cc(F)c(-n3c(=O)cc(C(F)(F)F)n(C)c3=O)cc21`, for which the IC50 came to 5.94e-08 M in assay [1]; 2.6e-08 M in assay [2]; 1.05e-08 M in assay [3]; 9.01e-08 M in assay [4]; 4.46e-07 M in assay [5]; 4.94e-08 M in assay [6]. Besides, in assay [7], the 50% inhibitory concentration (IC50) is 1.11e-08 M.

As to `C#CCN1C(=O)C(F)(F)Oc2cc(F)c(N3C(=O)C4=C(CCCC4)C3=O)cc21`, the IC50 was not below 1e-05 M in assay [1]; 3.7e-06 M in assay [2]; 3.07e-06 M in assay [3]; 4.32e-06 M in assay [4]; not below 1e-05 M in assay [5]; not below 1e-05 M in assay [6]. In assay [7], the IC50 was 3.57e-06 M.

As to `COC(Oc1ccccc1Oc1cc(-n2c(=O)cc(C(F)(F)F)n(C)c2=O)c(F)cc1Cl)C(=O)OC1CCCCC1` (stereo not shown), the IC50 in assay [1] was 1.48e-07 M; in assay [2], 1.01e-07 M; in assay [3], 2.97e-07 M; in assay [4] it was 3.78e-08 M; in assay [5], 6.82e-07 M; in assay [6], 3.22e-08 M. For the same molecule, the IC50 in assay [7] turned out to be 2.98e-08 M.

In the case of `COC(=O)C(OC)Oc1ccccc1Oc1cc(-n2c(=O)cc(C(F)(F)F)n(C)c2=O)c(F)cc1Cl` (stereo not shown), the IC50 in assay [1] was 1.2e-07 M; in assay [2], 1.16e-08 M; in assay [3] it was 1.76e-08 M; in assay [4] it was 1.71e-08 M; in assay [5], 2.86e-08 M; in assay [6] it was 1.62e-08 M. In addition, the IC50 in assay [7] was 1.16e-08 M.

Consider `CCOC(=O)COc1ncccc1Oc1cc(-n2c(=O)cc(C(F)(F)F)n(C)c2=O)c(F)cc1Cl` [A.13, ethyl [3-[2-chloro-4-fluoro-5-(1-methyl-6-trifluoromethyl-2,4-dioxo-1,2,3,4-tetrahydropyrimidin-3-yl)phenoxy]-2-pyridyloxy]acetate], for which the IC50 in assay [1] was found to be 1.92e-07 M; in assay [2], 1.24e-07 M; in assay [3], 4.18e-08 M; in assay [4], 4.38e-08 M; in assay [5], 4.64e-07 M; in assay [6], 4.83e-08 M. Further, the IC50 in assay [7] is 6.95e-08 M.

As for `O=C(O)c1cc(Oc2ccc(C(F)(F)F)cc2Cl)ccc1[N+](=O)[O-]` [ACIFLUORFEN], the half-inhibitory concentration (IC50) was not below 1e-05 M in assay [1]; 6.72e-06 M in assay [2]; not below 1e-05 M in assay [3]; 1.21e-05 M in assay [4]; not below 1e-05 M in assay [5]; not below 1e-05 M in assay [6]. In addition, the IC50 in assay [7] is not below 1e-05 M.

With `C=CCOC(=O)C(C)(C)OC(=O)c1cc(-n2c(=O)cc(C(F)(F)F)n(C)c2=O)ccc1Cl` [BUTAFENACIL], the IC50 in assay [1] was determined as 2.84e-08 M; in assay [2] it was 6.69e-08 M; in assay [3], 1.28e-08 M; in assay [4] it was 2.56e-08 M; in assay [5], 5.47e-08 M; in assay [6], 4.38e-08 M. For the same molecule, the IC50 in assay [7] came out at 2.31e-08 M.

`CCOC(=O)C(Cl)Cc1cc(-n2nc(C)n(C(F)F)c2=O)c(F)cc1Cl` (stereo not shown) [CARFENTRAZONE-ETHYL]: the IC50 turned out to be 1.88e-07 M in assay [1]; 3.96e-07 M in assay [2]; 1.21e-07 M in assay [3]; 2.07e-07 M in assay [4]; 2.82e-07 M in assay [5]; 7.86e-08 M in assay [6]. The IC50 in assay [7] came out at 2.99e-08 M.

Consider `C#CCN1C(=O)COc2cc(F)c(N3C(=O)C4=C(CCCC4)C3=O)cc21` [Flumioxazin, flumioxazin], for which the IC50 in assay [1] is 6.15e-06 M; in assay [2] it was 7.28e-06 M; in assay [3], not below 1e-05 M; in assay [4], not below 1e-05 M; in assay [5], not below 1e-05 M; in assay [6] it was not below 1e-05 M. For the same molecule, the IC50 in assay [7] is not below 1e-05 M.

With `CS(=O)(=O)NC(=O)c1cc(Oc2ccc(C(F)(F)F)cc2Cl)ccc1[N+](=O)[O-]` [Fomesafen, fomesafen], the IC50 in assay [1] is 1.07e-05 M; in assay [2], 2.36e-06 M; in assay [3] it was 2.91e-06 M; in assay [4], 2.79e-06 M; in assay [5] it was 2.15e-05 M; in assay [6] it was not below 1e-05 M. In addition, the IC50 in assay [7] is 1.1e-05 M.

For `CCOC(=O)C(C)OC(=O)c1cc(Oc2ccc(C(F)(F)F)cc2Cl)ccc1[N+](=O)[O-]` (stereo not shown) [Lactofen, lactofen], the IC50 in assay [1] came to 1.67e-07 M; in assay [2], 1.5e-08 M; in assay [3] it was 6.13e-08 M; in assay [4], 1.4e-08 M; in assay [5], 4.8e-08 M; in assay [6], 1.31e-07 M. The IC50 in assay [7] was found to be 6.39e-08 M.

As for `CCOc1cc(Oc2ccc(C(F)(F)F)cc2Cl)ccc1[N+](=O)[O-]` [OXIFLUORFEN], the IC50 in assay [1] turned out to be 3.91e-07 M; in assay [2], 6.52e-08 M; in assay [3], 3.68e-07 M; in assay [4], 1.98e-07 M; in assay [5], 1.17e-06 M; in assay [6], 7.36e-07 M. In addition, the IC50 in assay [7] was found to be 4.16e-07 M.
